Experimental data as given in patent EP3002287B1, “Thiochromeno[2,3-c]quinolin-12-one derivatives and their use as topoisomerase inhibitors” (National Defense Medical Center, priority 2014, dated 2016).
Where two headings read alike, the source gives them in different places.

Tests used:
DU-145 = assay: MTT assay for cell cytotoxicity; assay type: cell-based, human; conditions: 72 h, at least three independent experiments, read-out: MTT assay (IC50 ± SD) DU-145
Description: (§1) All of synthesis compounds were evaluated cell cytotoxicity by using MTT colorimetric assay on PC-3 and DU-145 cell lines. DU-145 and PC-3 are human hormone-refractory (androgen-independent) prostatic cancer cell lines from American Type Culture Collection (HTB-81™, ATCC, Rockville, MD)^125 and Bioresource Collection and Research Center (60122, BCRC, Taiwan)^126, respectively. Two of the "classical" cell lines were cultivated in RPMI-1640 medium supplemented with 5% fetal bovine serum (v/v), 100 U/mL penicillin, and […] streptomycin. Approximately 2 x 10^3 cells were seeded into each well of a 96-well plate and incubated in 5% CO2 at 37 °C for 24 h. To evaluate the in vitro cytotoxicity, all the synthetic compounds were dissolved in DMSO, prepared immediately before the experiments and diluted into the complete medium before being added to each well of a 96-well plate. Each compound was then added to the culture medium for designated various concentrations (0.15, 0.5, 1.5, 5, 15 µM). After 72 h, an amount of 100 µL of MTT (1 mg/mL) was added to each well, and the samples were incubated at 37 °C for 4 h. After removing the MTT solution, 100 µL of DMSO was added to each well and incubated at 37 °C for another 20 mins. The absorbency at 560 nm was measured by using an ELISA reader.
(§2) Results are expressed as mean values of at least three independent experiments. The IC50 values of testing compounds were described in Table 1. Table1. Effects of 10-Chloro-12H-thiochromeno[2,3-c]quinolin -12-one derivatives on cytotoxicity by MTT assay.

PC-3 = assay: MTT assay for cell cytotoxicity; assay type: cell-based, human; conditions: 72 h, at least three independent experiments, read-out: MTT assay (IC50 ± SD) PC-3
Description: as §1, §2

SMILES | IC50 (DU-145) [µM] | IC50 (PC-3) [µM] | IC50 (DU-145; Homo sapiens) [µM] | IC50 (PC-3; Homo sapiens) [µM]
O=c1c2cc(Cl)ccc2sc2c(NCCO)nc3ccccc3c12 [Compound N9, 10-Chloro-6-(2-ethanolamino)-12H-thiochromeno[2,3-c]quinol in-12-one] | 11.6 ± 7.23 | 7.48 ± 3.35 | – | –
O=c1c2cc(Cl)ccc2sc2c(NCC3CCCCC3)nc3ccccc3c12 [Compound N24, 10-Chloro-6-((cyclohexylmethyl)amino)-12H-thiochromeno[2,3-c]quinolin-12-one] | – | – | 13.6 ± 3.88 | 14.8 ± 3.26
Nc1ccc(CCNc2nc3ccccc3c3c(=O)c4cc(Cl)ccc4sc23)cc1 [Compound N32, 6-((4-Aminophenethyl)amino)-10-chloro-12H-thiochromeno[2,3-c]quinolin-12-one] | – | – | 13.6 ± 1.39 | 10.1 ± 0.94
O=c1c2cc(Cl)ccc2sc2c(NCc3ccc4c(c3)OCO4)nc3ccccc3c12 [Compound N27, 6-((Benzo[d][1,3]dioxol-5-ylmethyl)amino)-10-chloro-12H-thio chromeno[2,3-c]quinolin-12-one] | – | – | 11.8 ± 5.83 | > 15
CC(C)CC(C)Nc1nc2ccccc2c2c(=O)c3cc(Cl)ccc3sc12 (stereo not drawn) [Compound N13, 10-Chloro-6-((4-methylpentan-2yl)amino)-12H-thiochromeno[2,3-c]quinolin-12-one] | – | – | 14.2 ± 1.18 | 10.4 ± 2.3
CCCNc1nc2ccccc2c2c(=O)c3cc(Cl)ccc3sc12 [Compound N3, 10-Chloro-6 propylamino-12H-thiochromeno[2,3-c]quinolin-1 2-one] | – | – | 7.64 ± 2.74 | 7.41 ± 3.43
CC(C)CNc1nc2ccccc2c2c(=O)c3cc(Cl)ccc3sc12 [Compound N5, 10-Chloro-6-isobutylamino-12H-thiochromeno[2,3-c]quinolin-12-one] | – | – | > 15 | > 15
O=C1c2c(O)ccc(O)c2C(=O)c2c(NCCNCCO)ccc(NCCNCCO)c21 [Mitoxantrone, reference compound] | – | – | 0.1 ± 0.01 | 0.39 ± 0.02
COc1ccccc1CNc1nc2ccccc2c2c(=O)c3cc(Cl)ccc3sc12 [Compound N28, 10-Chloro-6-((2-methoxybenzyl)amino)-12H-thiochromeno[2,3-c]quinolin-12-one] | – | – | 9.61 ± 4.88 | 6.01 ± 3.31
CCN1CCN(c2nc3ccccc3c3c(=O)c4cc(Cl)ccc4sc23)CC1 [Compound 9, 10-Chloro-6-(4-ethylpiperazin-1-yl)-12H-thiochromeno[2,3-c]q uinolin-12-one] | – | – | > 15 | 12 ± 3.41
CCC(CO)Nc1nc2ccccc2c2c(=O)c3cc(Cl)ccc3sc12 (stereo not drawn) [Compound N12, 10-Chloro-6-((1-hydroxybutan-2yl)amino)-12H-thiochromeno[2,3-c]quinolin-12-one] | – | – | 6.74 ± 2.14 | 7.05 ± 2.48
O=c1c2cc(Cl)ccc2sc2c(NC3CCCCC3)nc3ccccc3c12 [Compound N21, 10-Chloro-6-(cyclohexylamino)-12H-thiochromeno[2,3-c]quino lin-12-one] | – | – | 8.06 ± 2.08 | 7.51 ± 0.22
O=c1c2cc(Cl)ccc2sc2c(N3CCSCC3)nc3ccccc3c12 [Compound 14, 10-Chloro-6-thiomorpholino-12H thiochromeno[2,3-c]quinolin-12-one] | – | – | > 15 | > 15
O=c1c2cc(Cl)ccc2sc2c(NCCN3CCOCC3)nc3ccccc3c12 [Compound N16, 10-Chloro-6-((2-morpholinoethyl)amino)-12H-thiochromeno[2,3-c]quinolin-12-one] | – | – | > 15 | > 15
O=C1CCCCN1c1nc2ccccc2c2c(=O)c3cc(Cl)ccc3sc12 [Compound 21, 10-chloro-6-(2-oxopiperidin-1-yl)-12H-thiochromeno[2,3-c]quin olin-12-one] | – | – | 11.1 ± 4.18 | 9.55 ± 2.42
O=c1c2cc(Cl)ccc2sc2c(N3CCC(N4CCCCC4)CC3)nc3ccccc3c12 [Compound 18, 6-([1,4'-Bipiperidin]-1'-yl)-10-chloro-12H-thiochromeno[2,3-c]q uinolin-12-one] | – | – | 10.2 ± 2.03 | 14.2 ± 1.41
O=c1c2cc(Cl)ccc2sc2c(N3CCCCC3)nc3ccccc3c12 [Compound 15, 10-Chloro-6-(piperidin-1-yl)-12H-thiochromeno[2,3-c]quinolin-12-one] | – | – | 13.4 ± 2.87 | > 15
O=c1c2cc(Cl)ccc2sc2c(N3CCC(Cc4ccccc4)CC3)nc3ccccc3c12 [Compound 17, 6-(4-Benzylpiperidin-1-yl)-10-chloro-12H-thiochromeno[2,3-c]q uinolin-12-one] | – | – | > 15 | > 15

SMILES | IC50 (DU-145) [µM] | IC50 (PC-3) [µM] | IC50 (DU-145; Homo sapiens) [µM] | IC50 (PC-3; Homo sapiens) [µM]
O=c1c2cc(Cl)ccc2sc2c(NCCCCCO)nc3ccccc3c12 [Compound N11, 10-Chloro-6-(5-pentanolamino)-12H-thiochromeno[2,3-c]quin olin-12-one] | 4.95 ± 0.58 | 8.38 ± 3.39 | – | –
O=c1c2cc(Cl)ccc2sc2c(NCc3ccccn3)nc3ccccc3c12 [Compound N26, 10-Chloro-6-((pyridin-2-ylmethyl)amino)-12H-thiochromeno[2,3-c]quinolin-12-one] | – | – | 14.8 ± 1.99 | 14.2 ± 2.22
O=c1c2cc(Cl)ccc2sc2c(NN3CCCCC3)nc3ccccc3c12 [Compound N34, 10-Chloro-6-(piperidin-1-ylamino)-12H-thiochromeno[2,3-c]qu inolin-12-one] | – | – | 9.06 ± 1.95 | 8.22 ± 1.02
O=c1c2cc(Cl)ccc2sc2c(NC3CCN(Cc4ccccc4)CC3)nc3ccccc3c12 [Compound N22, 6-((1-Benzylpiperidin-4-yl)amino)-10-chloro-12H-thiochromen o[2,3-c]quinolin-12-one] | – | – | 8.39 ± 1.84 | 6.47 ± 0.3
CCNc1nc2ccccc2c2c(=O)c3cc(Cl)ccc3sc12 [Compound N2, 10-Chloro-6-ethylamino-12H-thiochromeno[2,3-c]quinolin-12-one] | – | – | 6.7 ± 1.62 | 5.18 ± 2.2
O=c1c2cc(Cl)ccc2sc2c(N3CCCC3)nc3ccccc3c12 [Compound 20, 10-Chloro-6-(pyrrolidin-1-yl)-12H-thiochromeno[2,3-c]quinolin-12-one] | – | – | > 15 | > 15
O=c1c2cc(Cl)ccc2sc2c(NCCc3ccccc3)nc3ccccc3c12 [Compound N30, 10-Chloro-6-(phenethylamino)-12H-thiochromeno[2,3-c]quinol in-12-one] | – | – | > 15 | > 15
O=c1c2cc(Cl)ccc2sc2c(N3CCC(CCCC4CCNCC4)CC3)nc3ccccc3c12 [Compound 19, 10-Chloro-6-(4-(3-(piperidin-4-yl)propyl)piperidin-1yl)-12H-thi ochromeno[2,3-c]quinolin-12-one] | – | – | 9.02 ± 1.2 | 6.36 ± 0.17
COc1cc([C@@H]2c3cc4c(cc3[C@@H](O[C@@H]3O[C@@H]5CO[C@@H](C)O[C@H]5[C@H](O)[C@H]3O)[C@H]3COC(=O)[C@H]23)OCO4)cc(OC)c1O [Etoposide (VP-16), Etoposide, reference compound] | – | – | 0.4 ± 0.01 | 4.33 ± 0.86
O=c1c2cc(Cl)ccc2sc2c(N3CCC(O)CC3)nc3ccccc3c12 [Compound 16, 10-Chloro-6-(4-hydroxypiperidin-1-yl)-12H-thiochromeno[2,3-c]quinolin-12-one] | – | – | 11.1 ± 4.18 | 9.55 ± 2.42
COc1cccc2c1C(=O)c1c(O)c3c(c(O)c1C2=O)C[C@@](O)(C(=O)CO)C[C@@H]3O[C@H]1C[C@H](N)[C@H](O)[C@H](C)O1 [Doxorubicin, reference compound] | – | – | 0.12 ± 0.03 | –
CCC(CC)Nc1nc2ccccc2c2c(=O)c3cc(Cl)ccc3sc12 [Compound N6, 10-Chloro-6-(pentan-3-ylamino)-12H-thiochromeno[2,3-c]quin olin-12-one] | – | – | > 15 | > 15
CC[C@@]1(O)C(=O)OCc2c1cc1n(c2=O)Cc2cc3ccccc3nc2-1 [Camptothecin, reference compound] | – | – | 0.1 ± 0.01 | 0.1 ± 0.01
COc1ccc(CNc2nc3ccccc3c3c(=O)c4cc(Cl)ccc4sc23)cc1OC [Compound N29, 10-Chloro-6-((3,4-dimethoxybenzyl)amino)-12H-thiochromeno [2,3-c]quinolin-12-one] | – | – | 4.86 ± 0.99 | 6.2 ± 2.52
O=c1c2cc(Cl)ccc2sc2c(NCCCO)nc3ccccc3c12 [Compound N10, 10-Chloro-6-(3-propanolamino)-12H-thiochromeno[2,3-c]quin olin-12-one] | 5.94 ± 2.03 | 6.31 ± 4.11 | – | –
O=c1c2cc(Cl)ccc2sc2c(NCc3cccs3)nc3ccccc3c12 [Compound N23, 10-Chloro-6-((thiophen-2ylmethyl)amino)-12H-thiochromeno[2,3-c]quinolin-12-one] | – | – | 14.7 ± 3.84 | > 15
CCCCNc1nc2ccccc2c2c(=O)c3cc(Cl)ccc3sc12 [Compound N4, 6-(Butylamino)-10-chloro-12H-thiochromeno[2,3-c]quinolin-1 2-one] | – | – | 10.3 ± 2.46 | 10.1 ± 1.32
